According to ChEMBL document CHEMBL5212743, “Selectivity Literature for EUbOPEN Chemogenomics Library wave 3” (2023):
Each block holds one compound with its values, some of them ahead of it.

How the values were obtained:
[1] = target: T1, Tyrosine-protein kinase JAK3 (Homo sapiens) (UniProt P52333); assay: Selectivity interaction (KinomeScan (DiscoverX)) EUB0000706a JAK3; settings: at 1 µM
T1 sequence (whole entry): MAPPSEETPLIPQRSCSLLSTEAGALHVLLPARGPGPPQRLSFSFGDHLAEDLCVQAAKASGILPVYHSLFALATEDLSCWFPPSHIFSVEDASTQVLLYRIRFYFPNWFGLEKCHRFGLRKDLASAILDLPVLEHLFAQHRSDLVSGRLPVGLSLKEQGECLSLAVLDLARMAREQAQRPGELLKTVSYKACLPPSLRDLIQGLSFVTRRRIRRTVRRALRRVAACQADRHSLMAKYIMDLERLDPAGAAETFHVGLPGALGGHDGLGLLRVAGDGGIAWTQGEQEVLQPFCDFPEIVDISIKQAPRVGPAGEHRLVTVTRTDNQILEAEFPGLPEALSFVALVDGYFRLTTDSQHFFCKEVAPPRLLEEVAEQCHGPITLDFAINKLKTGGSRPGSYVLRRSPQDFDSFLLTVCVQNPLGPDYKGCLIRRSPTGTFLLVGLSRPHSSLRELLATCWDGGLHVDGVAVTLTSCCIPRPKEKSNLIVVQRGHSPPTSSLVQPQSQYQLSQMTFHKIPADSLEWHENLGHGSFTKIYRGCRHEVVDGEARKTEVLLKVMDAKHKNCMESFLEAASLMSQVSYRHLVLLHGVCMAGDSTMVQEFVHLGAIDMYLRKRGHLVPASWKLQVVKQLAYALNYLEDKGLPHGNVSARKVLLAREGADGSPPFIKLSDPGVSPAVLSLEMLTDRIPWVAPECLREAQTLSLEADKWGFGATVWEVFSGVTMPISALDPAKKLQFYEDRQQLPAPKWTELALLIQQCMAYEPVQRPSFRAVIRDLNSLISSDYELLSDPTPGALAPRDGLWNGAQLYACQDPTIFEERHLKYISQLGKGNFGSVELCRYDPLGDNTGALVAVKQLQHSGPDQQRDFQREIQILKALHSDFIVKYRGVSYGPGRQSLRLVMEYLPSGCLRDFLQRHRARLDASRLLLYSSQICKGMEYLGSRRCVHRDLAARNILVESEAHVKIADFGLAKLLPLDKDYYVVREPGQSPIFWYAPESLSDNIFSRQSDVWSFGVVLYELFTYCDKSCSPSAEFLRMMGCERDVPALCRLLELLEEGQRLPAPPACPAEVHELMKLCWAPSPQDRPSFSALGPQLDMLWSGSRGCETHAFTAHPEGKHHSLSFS

[2] = target: T2, Serine/threonine-protein kinase TAO3 (Homo sapiens) (UniProt Q9H2K8); assay: Selectivity interaction (KinomeScan (DiscoverX)) EUB0000706a TAOK3; settings: at 1 µM
T2 sequence (whole entry): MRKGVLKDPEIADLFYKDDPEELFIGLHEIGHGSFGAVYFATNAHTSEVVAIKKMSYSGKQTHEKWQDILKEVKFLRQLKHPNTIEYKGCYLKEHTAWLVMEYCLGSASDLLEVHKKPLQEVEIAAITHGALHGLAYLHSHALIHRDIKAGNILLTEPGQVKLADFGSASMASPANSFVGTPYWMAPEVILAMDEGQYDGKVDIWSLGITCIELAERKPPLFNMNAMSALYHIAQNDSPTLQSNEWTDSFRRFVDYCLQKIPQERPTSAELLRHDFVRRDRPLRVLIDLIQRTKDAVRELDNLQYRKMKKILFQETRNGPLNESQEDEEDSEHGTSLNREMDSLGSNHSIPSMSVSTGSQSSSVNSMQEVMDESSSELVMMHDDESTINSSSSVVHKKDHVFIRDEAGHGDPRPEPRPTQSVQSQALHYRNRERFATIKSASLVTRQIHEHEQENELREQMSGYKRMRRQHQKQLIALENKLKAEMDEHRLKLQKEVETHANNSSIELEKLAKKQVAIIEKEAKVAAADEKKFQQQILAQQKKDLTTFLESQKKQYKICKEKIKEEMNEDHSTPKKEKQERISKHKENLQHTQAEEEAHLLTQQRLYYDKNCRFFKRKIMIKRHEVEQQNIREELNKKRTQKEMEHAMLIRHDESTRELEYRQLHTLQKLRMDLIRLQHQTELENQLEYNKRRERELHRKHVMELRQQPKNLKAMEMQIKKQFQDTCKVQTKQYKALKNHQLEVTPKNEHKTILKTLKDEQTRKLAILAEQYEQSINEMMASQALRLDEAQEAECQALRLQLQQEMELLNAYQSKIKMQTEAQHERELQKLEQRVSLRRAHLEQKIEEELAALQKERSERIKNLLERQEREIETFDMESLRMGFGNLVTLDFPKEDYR

[3] = target: T3, Phosphatidylinositol 4,5-bisphosphate 3-kinase catalytic subunit alpha isoform (Homo sapiens, UniProt P42336); assay: Selectivity interaction (KinomeScan (DiscoverX)) EUB0000706a PIK3CA; settings: at 1 µM
[4] = target: Ribosomal protein S6 kinase alpha-5 (Homo sapiens) (UniProt O75582); assay: Selectivity interaction (KinomeScan (DiscoverX)) EUB0000722a RPS6KA5; settings: at 1 µM
[5] = target: Epidermal growth factor receptor (Homo sapiens, UniProt P00533); assay: Selectivity interaction (KinomeScan (DiscoverX)) EUB0000722a EGFR; settings: at 1 µM
[6] = target: Sigma intracellular receptor 2 (Homo sapiens, UniProt Q5BJF2); assay: Selectivity interaction (GPCR panel (PDSP screen)) EUB0000239b TMEM97; settings: at 10 µM
[7] = target: Microtubule-associated serine/threonine-protein kinase 1 (Homo sapiens) (UniProt Q9Y2H9); assay: Selectivity interaction (KinomeScan (DiscoverX)) EUB0000239b MAST1; settings: at 1 µM
[8] = system: Phosphatidylinositol 4,5-bisphosphate 3-kinase catalytic subunit alpha isoform (Homo sapiens), P42336 [E545K]; assay: Selectivity interaction (KinomeScan (DiscoverX)) EUB0000239b PIK3CA; settings: at 1 µM
[9] = target: Sodium/nucleoside cotransporter 2 (Homo sapiens) (UniProt O43868); assay: Selectivity interaction (Enzyme panel (receptors, ion channels, enzymes, and transporters)) EUB0000239b SLC28A2; settings: at 10 µM
[10] = target: Homeodomain-interacting protein kinase 1 (Homo sapiens, UniProt Q86Z02); assay: Selectivity interaction (KinomeScan (DiscoverX)) EUB0000239b HIPK1; settings: at 1 µM
[11] = target: Cyclin-dependent kinase 8 (Homo sapiens) (UniProt P49336); assay: Selectivity interaction (KinomeScan (DiscoverX)) EUB0000239b CDK8; settings: at 1 µM
[12] = system: T4, Receptor-type tyrosine-protein kinase FLT3 (Homo sapiens), P36888 [N841I]; assay: Selectivity interaction (KinomeScan (DiscoverX)) EUB0000239b FLT3; settings: at 1 µM
T4 sequence (whole entry): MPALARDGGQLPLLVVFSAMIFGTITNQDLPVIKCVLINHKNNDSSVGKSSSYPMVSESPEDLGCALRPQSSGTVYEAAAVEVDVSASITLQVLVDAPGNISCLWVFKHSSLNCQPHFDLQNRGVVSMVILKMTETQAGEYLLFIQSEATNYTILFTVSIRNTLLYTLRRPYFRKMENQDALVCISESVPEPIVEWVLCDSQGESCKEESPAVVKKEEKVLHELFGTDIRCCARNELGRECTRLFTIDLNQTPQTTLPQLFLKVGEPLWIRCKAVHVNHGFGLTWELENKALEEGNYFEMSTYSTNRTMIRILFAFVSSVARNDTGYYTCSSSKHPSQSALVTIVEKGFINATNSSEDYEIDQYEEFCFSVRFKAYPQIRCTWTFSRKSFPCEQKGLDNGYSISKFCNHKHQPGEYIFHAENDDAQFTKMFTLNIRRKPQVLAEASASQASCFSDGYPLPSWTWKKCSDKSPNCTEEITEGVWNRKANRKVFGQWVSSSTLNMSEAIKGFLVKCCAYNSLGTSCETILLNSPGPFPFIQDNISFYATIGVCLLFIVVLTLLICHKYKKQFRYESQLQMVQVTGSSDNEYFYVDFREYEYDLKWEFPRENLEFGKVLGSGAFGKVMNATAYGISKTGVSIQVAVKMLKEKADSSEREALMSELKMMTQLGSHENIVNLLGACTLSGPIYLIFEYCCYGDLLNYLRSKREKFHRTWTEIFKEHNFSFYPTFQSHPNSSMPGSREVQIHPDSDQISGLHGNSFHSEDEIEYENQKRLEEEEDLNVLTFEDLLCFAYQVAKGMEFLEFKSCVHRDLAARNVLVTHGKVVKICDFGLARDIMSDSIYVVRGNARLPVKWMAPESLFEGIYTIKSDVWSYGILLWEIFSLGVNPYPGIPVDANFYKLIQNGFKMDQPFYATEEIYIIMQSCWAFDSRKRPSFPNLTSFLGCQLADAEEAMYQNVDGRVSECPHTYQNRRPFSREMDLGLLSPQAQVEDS

[13] = target: Cathepsin G (Homo sapiens) (UniProt P08311); assay: Selectivity interaction (Protease panel (enzymatic assay)) EUB0000239b CTSG; settings: at 10 µM
[14] = target: Serine/threonine-protein kinase Nek3 (Homo sapiens) (UniProt P51956); assay: Selectivity interaction (KinomeScan (DiscoverX)) EUB0000239b NEK3; settings: at 1 µM
[15] = target: Kappa-type opioid receptor (Homo sapiens, UniProt P41145); assay: Selectivity interaction (GPCR panel (PDSP screen)) EUB0000344a OPRK1; settings: at 10 µM
[16] = system: Receptor-type tyrosine-protein kinase FLT3 (Homo sapiens), P36888 [K663Q]; assay: Selectivity interaction (KinomeScan (DiscoverX)) EUB0000344a FLT3; settings: at 1 µM
[17] = target: Ribosomal protein S6 kinase beta-1 (Homo sapiens) (UniProt P23443); assay: Selectivity interaction (KinomeScan (DiscoverX)) EUB0000344a RPS6KB1; settings: at 1 µM
[18] = target: T3, Phosphatidylinositol 4,5-bisphosphate 3-kinase catalytic subunit alpha isoform; assay: Selectivity interaction (KinomeScan (DiscoverX)) EUB0000744a PIK3CA; settings: at 100 nM
[19] = target: Tyrosine-protein kinase ABL1 (Homo sapiens, UniProt P00519); assay: Selectivity interaction (KinomeScan (DiscoverX)) EUB0000744a ABL1; settings: at 100 nM

T3 sequence (P42336 whole entry, canonical isoform): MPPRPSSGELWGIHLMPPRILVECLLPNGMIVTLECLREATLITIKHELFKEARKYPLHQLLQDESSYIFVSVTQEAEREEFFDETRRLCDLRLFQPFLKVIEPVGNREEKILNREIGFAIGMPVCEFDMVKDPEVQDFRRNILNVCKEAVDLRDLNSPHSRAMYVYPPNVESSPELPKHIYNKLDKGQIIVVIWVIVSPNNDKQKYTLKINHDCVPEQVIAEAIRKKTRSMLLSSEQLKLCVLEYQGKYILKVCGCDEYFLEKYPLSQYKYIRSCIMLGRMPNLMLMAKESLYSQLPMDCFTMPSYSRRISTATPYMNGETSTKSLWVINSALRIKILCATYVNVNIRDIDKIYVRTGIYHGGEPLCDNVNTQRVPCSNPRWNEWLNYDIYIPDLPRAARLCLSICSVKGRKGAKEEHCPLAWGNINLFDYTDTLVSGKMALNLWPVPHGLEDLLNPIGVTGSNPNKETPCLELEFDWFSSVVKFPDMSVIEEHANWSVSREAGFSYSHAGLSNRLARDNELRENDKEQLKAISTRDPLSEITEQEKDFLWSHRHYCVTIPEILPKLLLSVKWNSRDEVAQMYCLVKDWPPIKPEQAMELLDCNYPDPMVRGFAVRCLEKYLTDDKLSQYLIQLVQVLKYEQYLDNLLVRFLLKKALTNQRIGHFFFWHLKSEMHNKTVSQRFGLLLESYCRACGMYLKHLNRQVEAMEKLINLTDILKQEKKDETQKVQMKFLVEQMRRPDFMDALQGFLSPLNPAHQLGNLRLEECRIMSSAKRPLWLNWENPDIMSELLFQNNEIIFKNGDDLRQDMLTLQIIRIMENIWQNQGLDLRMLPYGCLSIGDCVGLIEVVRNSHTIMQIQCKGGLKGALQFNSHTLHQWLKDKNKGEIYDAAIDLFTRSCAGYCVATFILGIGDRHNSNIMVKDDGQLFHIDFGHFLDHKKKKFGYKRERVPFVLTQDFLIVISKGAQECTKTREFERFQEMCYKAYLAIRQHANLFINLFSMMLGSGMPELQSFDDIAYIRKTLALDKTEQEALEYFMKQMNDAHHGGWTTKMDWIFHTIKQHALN
Sequence of Microtubule-associated serine/threonine-protein kinase 1 (Homo sapiens) (Q9Y2H9 whole entry, looked up, canonical isoform): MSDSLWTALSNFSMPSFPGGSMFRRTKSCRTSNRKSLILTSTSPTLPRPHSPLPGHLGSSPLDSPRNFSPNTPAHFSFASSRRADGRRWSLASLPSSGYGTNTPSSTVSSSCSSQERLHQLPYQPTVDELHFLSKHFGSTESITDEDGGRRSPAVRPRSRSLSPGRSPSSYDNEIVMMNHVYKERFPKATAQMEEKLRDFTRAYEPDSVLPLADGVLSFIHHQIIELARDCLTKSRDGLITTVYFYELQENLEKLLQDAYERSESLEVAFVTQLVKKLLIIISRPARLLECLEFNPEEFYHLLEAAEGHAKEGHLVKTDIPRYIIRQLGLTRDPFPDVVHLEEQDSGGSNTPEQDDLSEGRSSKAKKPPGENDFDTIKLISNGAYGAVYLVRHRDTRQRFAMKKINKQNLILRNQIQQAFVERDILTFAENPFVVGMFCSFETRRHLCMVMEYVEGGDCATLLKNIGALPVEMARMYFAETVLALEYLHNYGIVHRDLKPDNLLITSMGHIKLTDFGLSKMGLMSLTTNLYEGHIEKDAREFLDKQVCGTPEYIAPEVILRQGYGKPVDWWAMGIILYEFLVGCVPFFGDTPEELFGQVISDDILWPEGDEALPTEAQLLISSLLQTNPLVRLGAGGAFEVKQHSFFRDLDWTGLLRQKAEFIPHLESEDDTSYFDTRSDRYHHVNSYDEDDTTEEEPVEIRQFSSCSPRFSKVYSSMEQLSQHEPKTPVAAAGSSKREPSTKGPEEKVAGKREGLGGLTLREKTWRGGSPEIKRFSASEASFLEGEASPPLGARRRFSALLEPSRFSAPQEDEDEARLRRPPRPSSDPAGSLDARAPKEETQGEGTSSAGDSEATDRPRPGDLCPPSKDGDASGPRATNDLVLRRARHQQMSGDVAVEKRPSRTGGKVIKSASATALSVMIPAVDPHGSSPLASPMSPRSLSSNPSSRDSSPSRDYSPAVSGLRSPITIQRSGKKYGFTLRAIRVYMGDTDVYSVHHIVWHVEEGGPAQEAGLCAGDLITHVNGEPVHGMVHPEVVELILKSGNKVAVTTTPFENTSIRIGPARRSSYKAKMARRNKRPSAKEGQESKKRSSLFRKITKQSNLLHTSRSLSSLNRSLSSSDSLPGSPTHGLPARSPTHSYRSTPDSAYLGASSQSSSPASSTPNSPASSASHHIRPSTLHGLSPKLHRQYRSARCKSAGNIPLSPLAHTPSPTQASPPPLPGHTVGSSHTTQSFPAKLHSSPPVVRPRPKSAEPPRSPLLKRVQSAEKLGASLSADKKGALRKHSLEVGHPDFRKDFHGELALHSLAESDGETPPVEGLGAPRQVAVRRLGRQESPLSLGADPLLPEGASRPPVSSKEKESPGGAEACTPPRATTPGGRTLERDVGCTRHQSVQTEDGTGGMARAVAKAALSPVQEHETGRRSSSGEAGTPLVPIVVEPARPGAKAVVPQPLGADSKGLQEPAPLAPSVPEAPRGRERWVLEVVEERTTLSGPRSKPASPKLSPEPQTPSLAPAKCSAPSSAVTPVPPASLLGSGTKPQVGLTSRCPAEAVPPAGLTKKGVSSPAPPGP
Sequence of Cathepsin G (Homo sapiens) (P08311 whole entry): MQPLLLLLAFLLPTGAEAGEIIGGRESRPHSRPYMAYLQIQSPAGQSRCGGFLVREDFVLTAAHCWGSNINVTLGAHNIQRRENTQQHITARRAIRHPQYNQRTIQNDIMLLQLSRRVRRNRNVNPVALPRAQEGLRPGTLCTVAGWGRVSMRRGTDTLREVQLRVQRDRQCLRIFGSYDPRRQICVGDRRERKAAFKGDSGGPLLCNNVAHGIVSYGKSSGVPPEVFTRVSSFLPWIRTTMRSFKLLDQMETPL
Sequence of Ribosomal protein S6 kinase alpha-5 (Homo sapiens) (O75582 whole entry, looked up): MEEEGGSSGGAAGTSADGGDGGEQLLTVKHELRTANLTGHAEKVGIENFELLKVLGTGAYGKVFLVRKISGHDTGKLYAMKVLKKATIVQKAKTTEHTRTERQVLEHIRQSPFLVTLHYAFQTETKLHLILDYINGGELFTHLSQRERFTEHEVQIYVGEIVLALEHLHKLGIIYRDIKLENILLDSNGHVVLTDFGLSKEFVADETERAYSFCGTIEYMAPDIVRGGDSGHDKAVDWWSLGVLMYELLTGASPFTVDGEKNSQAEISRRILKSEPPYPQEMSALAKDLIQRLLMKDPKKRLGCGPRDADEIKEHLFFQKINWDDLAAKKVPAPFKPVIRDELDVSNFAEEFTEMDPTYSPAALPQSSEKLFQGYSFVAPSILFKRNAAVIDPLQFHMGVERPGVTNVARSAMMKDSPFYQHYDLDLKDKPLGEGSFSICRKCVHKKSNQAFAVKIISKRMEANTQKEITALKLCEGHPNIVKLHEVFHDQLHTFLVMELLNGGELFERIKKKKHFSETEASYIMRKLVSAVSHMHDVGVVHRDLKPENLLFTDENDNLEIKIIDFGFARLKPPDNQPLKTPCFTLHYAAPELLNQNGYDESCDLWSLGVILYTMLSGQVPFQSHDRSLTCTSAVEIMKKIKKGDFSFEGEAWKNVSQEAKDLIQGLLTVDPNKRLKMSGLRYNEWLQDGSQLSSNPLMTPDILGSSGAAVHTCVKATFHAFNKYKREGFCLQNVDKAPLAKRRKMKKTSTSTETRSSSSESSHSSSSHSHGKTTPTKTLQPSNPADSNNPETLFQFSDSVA
Sequence of Kappa-type opioid receptor (P41145 whole entry): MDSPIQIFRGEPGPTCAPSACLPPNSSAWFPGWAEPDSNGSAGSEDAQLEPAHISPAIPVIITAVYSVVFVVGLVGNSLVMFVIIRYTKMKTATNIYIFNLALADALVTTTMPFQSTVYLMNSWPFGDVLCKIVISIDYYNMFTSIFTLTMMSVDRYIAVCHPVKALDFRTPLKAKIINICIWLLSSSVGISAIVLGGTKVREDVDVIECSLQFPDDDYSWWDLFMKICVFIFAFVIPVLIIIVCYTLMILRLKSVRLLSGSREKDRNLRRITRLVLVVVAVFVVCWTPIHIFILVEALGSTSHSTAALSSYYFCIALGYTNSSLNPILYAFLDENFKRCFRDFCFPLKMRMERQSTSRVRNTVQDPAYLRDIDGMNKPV
Sequence of Cyclin-dependent kinase 8 (Homo sapiens) (P49336 whole entry): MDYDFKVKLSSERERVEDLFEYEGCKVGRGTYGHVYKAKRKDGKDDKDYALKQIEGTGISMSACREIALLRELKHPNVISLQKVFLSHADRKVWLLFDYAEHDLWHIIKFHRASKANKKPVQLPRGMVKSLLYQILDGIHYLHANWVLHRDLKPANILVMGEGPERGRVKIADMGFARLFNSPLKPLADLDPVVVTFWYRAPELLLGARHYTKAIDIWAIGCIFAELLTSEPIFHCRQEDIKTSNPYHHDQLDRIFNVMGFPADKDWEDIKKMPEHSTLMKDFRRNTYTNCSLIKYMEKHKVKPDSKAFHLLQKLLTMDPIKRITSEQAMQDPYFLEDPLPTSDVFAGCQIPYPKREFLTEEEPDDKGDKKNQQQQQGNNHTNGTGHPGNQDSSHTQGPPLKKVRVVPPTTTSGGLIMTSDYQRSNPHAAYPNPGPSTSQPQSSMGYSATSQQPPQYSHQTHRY
Sequence of Serine/threonine-protein kinase Nek3 (Homo sapiens) (P51956 whole entry): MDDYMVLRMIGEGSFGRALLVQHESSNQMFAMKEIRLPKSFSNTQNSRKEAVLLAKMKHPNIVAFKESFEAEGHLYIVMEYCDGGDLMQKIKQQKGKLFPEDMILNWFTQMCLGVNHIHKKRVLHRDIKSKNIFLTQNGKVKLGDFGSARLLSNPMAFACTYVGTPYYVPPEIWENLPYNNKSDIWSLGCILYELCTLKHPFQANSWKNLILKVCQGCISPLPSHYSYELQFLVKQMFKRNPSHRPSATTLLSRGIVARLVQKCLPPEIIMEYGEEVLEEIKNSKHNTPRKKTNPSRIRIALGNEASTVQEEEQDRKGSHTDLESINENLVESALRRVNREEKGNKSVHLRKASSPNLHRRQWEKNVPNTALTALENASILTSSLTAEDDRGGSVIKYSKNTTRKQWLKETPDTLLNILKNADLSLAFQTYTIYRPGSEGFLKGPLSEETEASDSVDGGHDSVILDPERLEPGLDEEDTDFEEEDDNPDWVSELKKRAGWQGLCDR

- % of control [1]: 12%
- % of control [2]: 35%
- % of control [3]: 32%
Structure (SMILES): C[C@@H]1CN(c2cc(-c3nn(C)c4ccc(OC5(C)CC5)cc34)ncn2)C[C@H](C)O1

- % of control [4]: 35%
- % of control [5]: 27%
Structure (SMILES): CCN(Cc1ccc(Cl)cc1)c1ncc(C(=O)NCCCN2CCCC2=O)c(NC2CCCC2)n1

- % of inhibition [6]: 49.9%
- % of control [7]: 43%
- % of control [8]: 48%
- % of inhibition [9]: 52%
- % of control [10]: 40%
- % of control [11]: 39%
- % of control [12]: 23%
- % of inhibition [13]: 7%
- % of control [14]: 40%
Structure (SMILES): CO[C@@H](C)c1c(Nc2ccc([C@H](N(C)C(=O)C3CCS(=O)(=O)CC3)C(F)(F)F)cc2)cnc2cc(Cl)nn12

- % of inhibition [15]: 46.8%
- % of control [16]: 30%
- % of control [17]: 34%
Structure (SMILES): N#CC1(c2ccccn2)CCN(Cc2cc(C(=O)N3CCCC3)c(=O)n3ccccc23)CC1

- % of control [18]: 53%
- % of control [19]: 53%
Structure (SMILES): CC(C)CC(=O)N1CCc2nc(-c3ccc(Br)cc3)nc(N(C)Cc3ccccc3)c2C1
